# Patent publication US8268827B2, “Pyridazinone derivatives as PARP inhibitors” (Istituto di Ricerche di Biologia Molecolare P. Angeletti …, priority 2007, dated 2012)
# Where a name gives a salt, the structure may show the parent alone.
# Tests used:
# [1] = tested on: BRCA-1 silenced HeLa cells (HeLa shBRCA1-GFP); experiment: Proliferation assay in BRCA-1 silenced HeLa cells; type: cell-based; conditions: Homo sapiens; BRCA1 silenced HeLa cells, 168 hours; read-out: CC50 in the BRCA1 silenced HeLa cells
# How it was run: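 HeLa cells with lentiviral shRNA BRCA1 knockdown (>80%), compared with control-vector HeLa, seeded at 300 cells/well. Compound exposure lasted 168 h at 37° C. Viability was read as resazurin-to-resorufin fluorescence (ex 550/em 590 nm).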
# PARP-1 = target: T1, PARP-1 (Homo sapiens, UniProt P09874); experiment: PARP-1 SPA assay; type: biochemical
# T1 construct: purchased Trevigen 4668-500-01
# T1 sequence (P09874 whole entry): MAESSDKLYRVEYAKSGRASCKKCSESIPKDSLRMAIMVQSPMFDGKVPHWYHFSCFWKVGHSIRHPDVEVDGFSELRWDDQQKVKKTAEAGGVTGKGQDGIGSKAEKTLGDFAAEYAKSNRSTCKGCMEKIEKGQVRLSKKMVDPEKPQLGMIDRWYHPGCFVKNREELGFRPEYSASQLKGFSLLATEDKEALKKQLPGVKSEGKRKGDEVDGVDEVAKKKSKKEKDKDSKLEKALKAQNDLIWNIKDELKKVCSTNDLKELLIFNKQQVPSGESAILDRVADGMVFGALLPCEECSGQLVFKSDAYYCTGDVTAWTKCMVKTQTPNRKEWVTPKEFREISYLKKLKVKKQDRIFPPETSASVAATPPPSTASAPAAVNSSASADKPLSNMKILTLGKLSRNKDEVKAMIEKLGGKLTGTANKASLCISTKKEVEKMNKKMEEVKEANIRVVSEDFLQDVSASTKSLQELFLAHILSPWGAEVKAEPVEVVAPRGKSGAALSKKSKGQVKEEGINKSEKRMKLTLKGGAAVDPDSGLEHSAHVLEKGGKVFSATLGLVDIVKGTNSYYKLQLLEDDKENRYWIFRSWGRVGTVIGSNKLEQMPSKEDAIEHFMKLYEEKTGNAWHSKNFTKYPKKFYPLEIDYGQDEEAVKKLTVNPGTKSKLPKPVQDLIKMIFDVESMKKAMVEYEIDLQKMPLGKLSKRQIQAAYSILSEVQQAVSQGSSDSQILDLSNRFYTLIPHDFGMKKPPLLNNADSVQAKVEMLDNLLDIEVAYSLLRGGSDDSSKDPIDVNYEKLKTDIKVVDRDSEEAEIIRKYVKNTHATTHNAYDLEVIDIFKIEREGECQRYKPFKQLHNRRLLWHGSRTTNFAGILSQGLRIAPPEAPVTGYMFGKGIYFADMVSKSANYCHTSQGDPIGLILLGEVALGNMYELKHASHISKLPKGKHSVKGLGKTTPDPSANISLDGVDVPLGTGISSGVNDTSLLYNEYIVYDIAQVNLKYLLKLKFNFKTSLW
# Protocol: Assay buffer: 100 mM Tris pH 8, 4 mM MgCl2, 4 mM Spermine, 200 mM KCl, 0.04% Nonidet P-40.
# Nicotinamide-adenine dinucleotide (NAD)/DNA Mix: [^3H-NAD] (250 uCi/ml, 0.4 ul, Perkin-Elmer NET-443H), NAD (1.5 mM, 0.05 ul, SIGMA N-1511), Biotinylated-NAD (250 uM, 0.03 ul, Trevigen 4670-500-01), Activated calf thymus (1 mg/ml, 0.05 ul, Amersham Biosciences 27-4575), H2O (to 10 ul).
# Developing Mix: Streptavidin SPA beads (5 mg/ml, Amersham Biosciences RPNQ 0007) dissolved in 500 mM EDTA.
# The reaction is performed in 96-well microplate with a final volume of 50 uL/well. Add 5 ul 5% DMSO/compound solution, add enzyme mix (35 ul), start the reaction by adding NAD/DNA mix (10 uL) and incubate for 2 hrs at RT. Stop the reaction by adding developing mix (25 ul) and incubate 15 min at RT. Measure using a Packard TOP COUNT instrument.
IC50 (PARP-1),Structure (SMILES),CC50 [1]
< 0.005 µM,"Cc1c(Cc2ccc(F)c(C(=O)N3CCN(C(C)c4nc(C(C)C)no4)C(=O)C3)c2)n[nH]c(=O)c1C (centres unmarked) [Example 54, 6-[4-Fluoro-3-({4-[1-(3-isopropyl-1,2,4-oxadiazol-5-yl)ethyl]-3-oxopiperazin-1-yl}carbonyl)benzyl]-4,5-dimethyl-3-oxo-2,3-dihydropyridazin-1-ium trifluoroacetate]",0.05 to 0.5 µM
0.005 to 0.025 µM,"Cc1c(Cc2ccc(F)c(C(=O)N3CCN(C4CC(F)(F)C4)C(=O)C3)c2)n[nH]c(=O)c1C [Example 55, 6-(3-{[4-(3,3-Difluorocyclobutyl)-3-oxopiperazin-1-yl]carbonyl}-4-fluorobenzyl)-4,5-dimethyl-3-oxo-2,3-dihydropyridazin-1-ium trifluoroacetate]",0.05 to 0.5 µM
0.005 to 0.025 µM,"Cc1c(Cc2ccc(F)c(C(=O)N3CCN(CC4(c5ccccc5)CCOCC4)C(=O)C3)c2)n[nH]c(=O)c1C [Example 56, 6-[4-Fluoro-3-({3-oxo-4-[(4-phenyltetrahydro-2H-pyran-4-yl)methyl]piperazin-1-yl}carbonyl)benzyl]-4,5-dimethyl-3-oxo-2,3-dihydropyridazin-1-ium trifluoroacetate]",< 5 µM
0.005 to 0.025 µM,"Cc1c(Cc2ccc(F)c(C(=O)N3CCN(C4CCC4)C(=O)C3)c2)n[nH]c(=O)c1C [Example 57, 6-{3-[(4-Cyclobutyl-3-oxopiperazin-1-yl)carbonyl]-4-fluorobenzyl}-4,5-dimethyl-3-oxo-2,3-dihydropyridazin-1-ium trifluoroacetate]",0.05 to 0.5 µM
< 0.005 µM,"Cc1c(Cc2ccc(F)c(C(=O)N3CCN(CCc4cccc(F)c4)C(=O)C3)c2)n[nH]c(=O)c1C [Example 59, 6-[4-Fluoro-3-({4-[2-(3-fluorophenyl)ethyl]-3-oxopiperazin-1-yl}carbonyl)benzyl]-4,5-dimethyl-3-oxo-2,3-dihydropyridazin-1-ium trifluoroacetate]",0.05 to 0.5 µM
< 0.005 µM,"Cc1c(Cc2ccc(F)c(C(=O)N3CCN(c4cnc5ccccc5c4)C(=O)C3)c2)n[nH]c(=O)c1C [Example 60, 6-{4-Fluoro-3-[(3-oxo-4-quinolin-3-ylpiperazin-1-yl)carbonyl]benzyl}-4,5-dimethylpyridazin-3(2H)-one]",< 0.05 µM
0.005 to 0.025 µM,"Cc1c(Cc2ccc(F)c(C(=O)N3CCN(c4cc(C(F)(F)F)ccn4)C(=O)C3)c2)n[nH]c(=O)c1C [Example 61, 3-[4-Fluoro-3-({3-oxo-4-[4-(trifluoromethyl)pyridin-2-yl]piperazin-1-yl}carbonyl)benzyl]-4,5-dimethyl-6-oxo-1,6-dihydropyridazin-1-ium trifluoroacetate]",0.05 to 0.5 µM
0.005 to 0.025 µM,"Cc1c(Cc2ccc(F)c(C(=O)N3CCN([C@@H]4CCCC[C@H]4c4ccccc4)C(=O)C3)c2)n[nH]c(=O)c1C [Example 67, 6-[4-Fluoro-3-({3-oxo-4-[(1R,2S)-2-phenylcyclohexyl]piperazin-1-yl}carbonyl)benzyl]-4,5-dimethyl-3-oxo-2,3-dihydropyridazin-1-ium trifluoroacetate]",0.05 to 0.5 µM
0.005 to 0.025 µM,"Cc1c(Cc2ccc(F)c(C(=O)N3CCN(CC(F)(F)F)C(=O)C3)c2)n[nH]c(=O)c1C [Example 72, 6-(4-Fluoro-3-{[3-oxo-4-(2,2,2-trifluoroethyl)piperazin-1-yl]carbonyl}benzyl)-4,5-dimethyl-3-oxo-2,3-dihydropyridazin-1-ium trifluoroacetate]",0.05 to 0.5 µM
< 0.005 µM,"Cc1c(Cc2ccc(F)c(C(=O)N3CCN(C4CCCCCC4)C(=O)C3)c2)n[nH]c(=O)c1C [Example 73, 6-{3-[(4-Cycloheptyl-3-oxopiperazin-1-yl)carbonyl]-4-fluorobenzyl}-4,5-dimethyl-3-oxo-2,3-dihydropyridazin-1-ium trifluoroacetate]",< 0.05 µM
< 0.005 µM,"Cc1c(Cc2ccc(F)c(C(=O)N3CCN(C4CCOC(C)(C)C4)C(=O)C3)c2)n[nH]c(=O)c1C (centres unmarked) [Example 76, 6-(3-{[4-(2,2-Dimethyltetrahydro-2H-pyran-4-yl)-3-oxopiperazin-1-yl]carbonyl}-4-fluorobenzyl)-4,5-dimethylpyridazin-3(2H)-one trifluoroacetate]",< 5 µM
< 0.005 µM,"Cc1c(Cc2ccc(F)c(C(=O)N3CC(=O)N(c4ccccc4)C(C)(C)C3)c2)n[nH]c(=O)c1C [Example 77, 6-{3-[(3,3-Dimethyl-5-oxo-4-phenylpiperazin-1-yl)carbonyl]-4-fluorobenzyl}-4,5-dimethylpyridazin-3(2H)-one]",< 0.05 µM
0.005 to 0.025 µM,"O=C(c1cc(Cc2cc(C(F)(F)C(F)(F)F)c(=O)[nH]n2)ccc1F)N1CCN(C2CCCC2)C(=O)C1 [Example 81, 6-{3-[(4-Cyclopentyl-3-oxopiperazin-1-yl)carbonyl]-4-fluorobenzyl}-4-(pentafluoroethyl)pyridazin-3(2H)-one]",0.05 to 0.5 µM
< 0.005 µM,"Cc1c(Cc2ccc(F)c(C(=O)N3CC(=O)N4CCCC[C@@H]4C3)c2)n[nH]c(=O)c1C [Example 90, (9aR)-2-{5-[(4,5-Dimethyl-6-oxo-1,6-dihydropyridazin-3-yl)methyl]-2-fluorobenzoyl}octahydro-4H-pyrido[1,2-a]pyrazin-4-one trifluoroacetate]",< 0.05 µM
< 0.005 µM,"Cc1c(Cc2ccc(F)c(C(=O)N3CCN(c4ccc(C#N)cc4)C(=O)C3)c2)n[nH]c(=O)c1C [Example 94, 3-(3-{[4-(4-Cyanophenyl)-3-oxopiperazin-1-yl]carbonyl}-4-fluorobenzyl)-4,5-dimethyl-6-oxo-1,6-dihydropyridazin-1-ium trifluoroacetate]",0.05 to 0.5 µM
< 0.005 µM,"Cc1c(Cc2ccc(F)c(C(=O)N3CCN(c4ccc(S(C)(=O)=O)cc4)C(=O)C3)c2)n[nH]c(=O)c1C [Example 95, 3-[4-Fluoro-3-({4-[4-(methylsulfonyl)phenyl]-3-oxopiperazin-1-yl}carbonyl)benzyl]-4,5-dimethyl-6-oxo-1,6-dihydropyridazin-1-ium trifluoroacetate]",0.05 to 0.5 µM
0.005 to 0.025 µM,"Cc1c(Cc2ccc(F)c(C(=O)N3CCN(C(c4cccnc4)C(F)F)C(=O)C3)c2)n[nH]c(=O)c1C (centres unmarked) [Example 96, 6-(3-{[4-(2,2-difluoro-1-pyridin-3-ylethyl)-3-oxopiperazin-1-yl]carbonyl}-4-fluorobenzyl)-4,5-dimethyl-3-oxo-2,3-dihydropyridazin-1-ium trifluoroacetate]",< 5 µM
0.005 to 0.025 µM,"Cc1c(Cc2ccc(F)c(C(=O)N3CCN(CC4(C)CCCO4)C(=O)C3)c2)n[nH]c(=O)c1C (centres unmarked) [Example 97, 6-[4-fluoro-3-({4-[(2-methyltetrahydrofuran-2-yl)methyl]-3-oxopiperazin-1-yl}carbonyl)benzyl]-4,5-dimethyl-3-oxo-2,3-dihydropyridazin-1-ium trifluoroacetate]",< 5 µM
0.005 to 0.025 µM,"Cc1c(Cc2ccc(F)c(C(=O)N3CCN([C@H]4CCOC4)C(=O)C3)c2)n[nH]c(=O)c1C [Example 113, 6-[4-Fluoro-3-({3-oxo-4-[(3S)-tetrahydrofuran-3-yl]piperazin-1-yl}carbonyl)benzyl]-4,5-dimethylpyridazin-3(2H)-one]",0.05 to 0.5 µM
